Legend:
KOR [1] = target: T1, KOR (Homo sapiens, UniProt P41145); type: binding; conditions: for LE (Ligand Efficiency): LE = 1.4(−logKi)/N
MOR = MOR (Homo sapiens, UniProt P35372); experiment: Gi-mediated inhibition of cAMP production at MOR; type: cell-based; conditions: relative to KOR agonist activity; Figure S1
DOR = DOR (Homo sapiens, UniProt P41143); experiment: Gi-mediated inhibition of cAMP production at DOR; type: cell-based; conditions: relative to KOR agonist activity; Figure S1
KOR [2] = target: T1, KOR; experiment: KOR-arrestin translocation; type: cell-based; conditions: for agonist activity in β-arrestin recruitment: agonist mode, normalized to Sal A
KOR [3] = target: T1, KOR; experiment: Gi-mediated inhibition of cAMP production; type: cell-based
KOR H291A mutant = experiment: 3H-U69593 binding at KOR single point mutant H291A; conditions: vs wild type KOR
KOR M142A mutant = experiment: 3H-U69593 binding at KOR single point mutant M142A; conditions: vs wild type KOR
KOR I294A mutant = experiment: 3H-U69593 binding at KOR single point mutant I294A; conditions: vs wild type KOR
[4] = inhibition of Sal A mediated Gi activation

| Structure (SMILES) | effect of H291A mutation on ligand affinity (fold reduction vs WT KOR) (KOR H291A mutant) | effect of M142A mutation on ligand binding (fold reduction of binding vs WT KOR) (KOR M142A mutant) | LE (Ligand Efficiency) (KOR [1]; Table 2 derivatives) | effect of I294A mutation on ligand affinity (fold reduction vs WT KOR) (KOR I294A mutant) | also measured |
| --- | --- | --- | --- | --- | --- |
| CC(c1cccc(O)c1)N(C)Cc1nccn1CC(F)(F)F (stereo not drawn) [Compound 28] | – | – | – | – | %Inhib ± SEM (inhibition of 3H-U69593 radioligand binding) (KOR [1]; Table 1 VLS hits, 50 μM compound, SEM, N=3): 96.9 ± 1.2%; reduction of agonist activity at MOR (MOR): at least 50%; reduction of agonist activity at DOR (DOR): at least 50%; agonist activity in β-arrestin recruitment (KOR [2]): measurable β-arrestin recruitment activity |
| Oc1cccc(C(O)CNCc2ccc(Cl)cc2Cl)c1 (stereo not drawn) [Compound 64] | more than 10 fold | at least 10 fold | 0.47 kcal/mol per heavy atom | more than 10 fold | functional profile, arrestin versus G-protein assays (KOR [3]; comparison of β-arrestin (Tango) and Gi-cAMP assays): balanced antagonist; Schild slope (KOR [3]; [4]): 1.15 ± 0.06; pA2 (Schild analysis) (KOR [3]; [4]): 6.78 ± 0.11; antagonist activity: inhibition of Sal A-induced β-arrestin recruitment (KOR [2]; antagonist mode, 30 nM Sal A, normalized to 5-GNTI): completely inhibiting |
| COc1ccc(CNCC(O)c2cccc(O)c2)cc1Br (stereo not drawn) [Compound 67] | more than 10 fold | at least 10 fold | – | more than 10 fold | – |
| Cc1ccc(C(CNC(=O)c2oc3ccccc3c2C)N2CCCC2)o1 (stereo not drawn) [Compound 69] | – | enhancing binding | – | – | – |
| Cc1ccc(C(CNC(=O)c2oc3ccc(F)cc3c2C)N2CCCC2)o1 (stereo not drawn) [Compound 70] | – | enhancing binding | 0.32 kcal/mol per heavy atom | – | – |
| O=C(NC[C@@H](c1ccco1)N1CCCC1)c1cc2ccccc2o1 [Compound 71] | – | – | 0.35 kcal/mol per heavy atom | – | – |
| Cc1c(C(=O)NCC(c2ccco2)N2CCCC2)oc2ccc(Cl)cc12 (stereo not drawn) [Compound 72] | – | enhancing binding | – | – | – |
| COc1ccc2oc(C(=O)NCC(c3ccco3)N3CCCC3)c(C)c2c1 (stereo not drawn) [Compound 73] | – | – | 0.32 kcal/mol per heavy atom | – | – |
| CC(NCc1nccn1C)c1cccc(O)c1 (stereo not drawn) [Compound 81] | – | – | – | – | %Inhib (inhibition of 3H-U69593 radioligand binding) (KOR [1]; Table 2 derivatives, 50 μM compound, N=3): 78.81%; reduction of agonist activity at MOR (MOR): ≥ 70%; reduction of agonist activity at DOR (DOR): ≥ 70%; agonist activity in β-arrestin recruitment (KOR [2]): minimal β-arrestin recruitment |
| CCN(Cc1csc(C)n1)C(C)c1cccc(O)c1 (stereo not drawn) [Compound 87] | more than 10 fold | – | – | more than 10 fold | – |
| COC(=O)[C@@H]1C[C@H](OC(C)=O)C(=O)[C@H]2[C@@]1(C)CC[C@H]1C(=O)O[C@H](c3ccoc3)C[C@]21C [Sal A, salvinorin A, reference compound] | not affecting binding | at least 10 fold | – | not affecting binding | – |
